Reference: ChEMBL document CHEMBL3526076, “Species-dependent and receptor-selective action of bilobalide on the function of constitutive androstane receptor and pregnane X receptor” (Drug Metab Dispos, 2012)

Key:
[1] = biological target: T1, Nuclear receptor subfamily 1 group I member 2 (Rattus norvegicus, UniProt Q9R1A7); experiment: Activation of rat PXR expressed in human HepG2 cells coexpressing CYP3A4 at 0.1 to 100 uM after 24 hrs by dual luciferase reporter gene assay; format: ADME, cell-based; conditions: hepg2, 24 h
T1 sequence (Q9R1A7 whole entry): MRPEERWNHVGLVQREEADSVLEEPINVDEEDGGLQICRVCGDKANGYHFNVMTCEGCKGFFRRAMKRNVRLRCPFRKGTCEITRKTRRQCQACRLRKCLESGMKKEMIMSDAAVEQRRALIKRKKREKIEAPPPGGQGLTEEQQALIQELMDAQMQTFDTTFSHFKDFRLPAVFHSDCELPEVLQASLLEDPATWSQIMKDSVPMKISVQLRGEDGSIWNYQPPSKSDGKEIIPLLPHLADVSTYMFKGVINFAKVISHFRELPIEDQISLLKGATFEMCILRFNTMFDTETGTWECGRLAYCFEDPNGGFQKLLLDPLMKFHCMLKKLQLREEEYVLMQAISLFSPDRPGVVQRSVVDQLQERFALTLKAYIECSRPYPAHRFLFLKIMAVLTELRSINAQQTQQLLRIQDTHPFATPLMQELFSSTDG

[2] = biological target: T2, Nuclear receptor subfamily 1 group I member 2 (Homo sapiens, UniProt O75469); experiment: Activation of PXR in human Hu1108 hepatocytes assessed as effect on CYP3A-mediated testosterone 6beta-hydroxylation at 10 to 50 uM after 24 hrs by HPLC analysis; format: ADME, cell-based, Hepatocyte
T2 sequence (O75469 whole entry): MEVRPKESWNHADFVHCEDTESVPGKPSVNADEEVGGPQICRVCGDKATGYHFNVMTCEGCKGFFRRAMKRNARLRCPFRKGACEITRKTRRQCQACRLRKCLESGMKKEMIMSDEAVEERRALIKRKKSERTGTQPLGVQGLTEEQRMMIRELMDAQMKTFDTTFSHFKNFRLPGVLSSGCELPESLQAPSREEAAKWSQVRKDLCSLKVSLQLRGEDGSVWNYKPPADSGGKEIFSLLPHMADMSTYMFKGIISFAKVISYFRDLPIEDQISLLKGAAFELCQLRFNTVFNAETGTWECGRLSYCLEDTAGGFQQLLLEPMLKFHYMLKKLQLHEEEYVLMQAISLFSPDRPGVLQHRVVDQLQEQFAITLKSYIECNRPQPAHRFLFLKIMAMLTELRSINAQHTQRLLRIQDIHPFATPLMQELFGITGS

[3] = biological target: T3, Nuclear receptor subfamily 1 group I member 3 (Homo sapiens, UniProt Q14994); experiment: Activation of CAR in human Hu1043 hepatocytes assessed as increase in CYP2B6-mediated bupropion hydroxylation at 10 to 60 uM after 24 hrs by LC-MS analysis; format: ADME, cell-based, Hepatocyte
T3 sequence (Q14994 whole entry): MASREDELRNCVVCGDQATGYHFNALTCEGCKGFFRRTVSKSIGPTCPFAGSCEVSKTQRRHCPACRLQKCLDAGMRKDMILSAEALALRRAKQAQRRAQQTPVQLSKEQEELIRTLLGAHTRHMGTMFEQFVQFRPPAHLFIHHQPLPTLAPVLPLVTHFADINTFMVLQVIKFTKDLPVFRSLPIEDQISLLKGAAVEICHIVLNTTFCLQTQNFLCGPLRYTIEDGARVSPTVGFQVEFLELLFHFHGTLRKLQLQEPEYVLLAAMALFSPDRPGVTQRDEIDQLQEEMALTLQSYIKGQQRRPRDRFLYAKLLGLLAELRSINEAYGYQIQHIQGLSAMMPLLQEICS

[4] = biological target: T3, Nuclear receptor subfamily 1 group I member 3; experiment: Activation of human CAR expressed in rat hepatocytes coexpressing CYP2B1 at 100 uM after 24 hrs by dual luciferase reporter gene assay; format: ADME, cell-based, Hepatocyte
CAR mRNA [5] = experiment: Effect on CAR mRNA expression in human hepatocytes at 25 uM by RT-PCR analysis relative to control; format: ADME, cell-based, Hepatocyte; conditions: read-out: FC
[6] = biological target: T1, Nuclear receptor subfamily 1 group I member 2; experiment: Antagonist activity at rat PXR expressed in human HepG2 cells coexpressing CYP3A4 assessed as inhibition of PCN-induced receptor activation up to 100 uM after 24 hrs by dual luciferase reporter gene assay; format: ADME, cell-based; conditions: hepg2, 24 h
[7] = biological target: T2, Nuclear receptor subfamily 1 group I member 2; experiment: Activation of human PXR expressed in rat hepatocytes coexpressing CYP3A4 at 100 uM after 24 hrs by dual luciferase reporter gene assay; format: ADME, cell-based, Hepatocyte
[8] = biological target: T2, Nuclear receptor subfamily 1 group I member 2; experiment: Antagonist activity at human PXR expressed in human HepG2 cells coexpressing CYP3A4 assessed as inhibition of rifampicin-induced receptor activation up to 100 uM after 24 hrs by dual luciferase reporter gene assay; format: ADME, cell-based; conditions: hepg2, 24 h
PXR mRNA [9] = experiment: Effect on PXR mRNA expression in rat hepatocytes at 1 uM by RT-PCR analysis relative to control; format: ADME, cell-based, Hepatocyte; conditions: read-out: FC
CAR mRNA [10] = experiment: Effect on CAR mRNA expression in rat hepatocytes at 10 uM by RT-PCR analysis relative to control; format: ADME, cell-based, Hepatocyte; conditions: read-out: FC
[11] = biological target: T4, Nuclear receptor subfamily 1 group I member 3 (Rattus norvegicus, UniProt Q9QUS1); experiment: Activation of CAR in rat hepatocytes assessed as upregulation of CYP2B1 mRNA expression at 3 uM after 24 hrs by RT-PCR analysis relative to phenobarbital; format: ADME, cell-based, Hepatocyte
T4 sequence (Q9QUS1 whole entry): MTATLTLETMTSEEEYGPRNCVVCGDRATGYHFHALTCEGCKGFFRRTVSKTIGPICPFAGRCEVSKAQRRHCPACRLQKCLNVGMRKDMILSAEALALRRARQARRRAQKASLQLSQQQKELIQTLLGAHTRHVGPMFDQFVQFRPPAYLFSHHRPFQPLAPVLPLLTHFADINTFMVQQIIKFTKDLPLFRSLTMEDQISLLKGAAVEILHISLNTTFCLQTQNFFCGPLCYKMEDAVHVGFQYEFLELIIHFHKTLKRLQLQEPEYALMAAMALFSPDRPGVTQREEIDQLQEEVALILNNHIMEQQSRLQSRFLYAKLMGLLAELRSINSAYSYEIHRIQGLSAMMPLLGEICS

PXR mRNA [12] = experiment: Effect on PXR mRNA expression in rat hepatocytes at 30 uM by RT-PCR analysis relative to control; format: ADME, cell-based, Hepatocyte; conditions: read-out: FC
[13] = biological target: T4, Nuclear receptor subfamily 1 group I member 3; experiment: Activation of CAR in rat hepatocytes assessed as upregulation of CYP2B1 mRNA expression at 10 uM after 24 hrs by RT-PCR analysis relative to phenobarbital; format: ADME, cell-based, Hepatocyte
PXR mRNA [14] = experiment: Effect on PXR mRNA expression in rat hepatocytes at 3 uM by RT-PCR analysis relative to control; format: ADME, cell-based, Hepatocyte; conditions: read-out: FC
CAR mRNA [15] = experiment: Effect on CAR mRNA expression in rat hepatocytes at 1 uM by RT-PCR analysis relative to control; format: ADME, cell-based, Hepatocyte; conditions: read-out: FC
[16] = biological target: T2, Nuclear receptor subfamily 1 group I member 2; experiment: Activation of PXR in human Hu1108 hepatocytes assessed as effect on CYP3A4 mRNA expression at 10 to 50 uM after 24 hrs by RT-PCR analysis; format: ADME, cell-based, Hepatocyte
[17] = biological target: T4, Nuclear receptor subfamily 1 group I member 3; experiment: Activation of CAR in rat hepatocytes assessed as increase in CYP2B-mediated benzyloxyresorufin O-dealkylation at 10 uM after 24 hrs by spectrofluorometric analysis relative to phenobarbital; format: ADME, cell-based, Hepatocyte
[18] = biological target: T4, Nuclear receptor subfamily 1 group I member 3; experiment: Activation of rat CAR expressed in rat hepatocytes coexpressing CYP2B1 at 60 uM after 24 hrs by dual luciferase reporter gene assay relative to phenobarbital; format: ADME, cell-based, Hepatocyte

In the case of `CC(C)(C)[C@]1(O)C[C@@H]2OC(=O)C[C@@]23C(=O)O[C@@H]2OC(=O)[C@H](O)[C@]213`, the Activity [1] is reported as “Not Active”, the Activity [2] is reported as “Not Active” and the Activity [3] is reported as “Not Active”. For the same compound, the Activity [4] was “Not Active”, the fold induction at 25 µM (CAR mRNA [5]) was 1.4 and the “inhibition (INH)” value [6] was “Not Active”. The Activity [7] was “Not Active”, the “inhibition (INH)” value [8] was “Not Active” and the fold induction at 1 µM (PXR mRNA [9]) was 1.1. It also gave a fold induction at 10 µM (CAR mRNA [10]) of 1.1, an Activity [11] of 6% and a fold induction at 30 µM (PXR mRNA [12]) of 0.8. The Activity [13] was 18%, the fold induction at 3 µM (PXR mRNA [14]) was 1 and the fold induction at 1 µM (CAR mRNA [15]) was 1.3. The Activity [16] was “Not Active”, the Activity [17] was 64% and the Activity [18] was 176%.
